Test results as given in publication PMC4556614 (PLoS ONE, 2015).

Experiments:
OCT2 [1] = biological target: T1, OCT2 (Homo sapiens, UniProt O15244); experiment: in vitro
OCT2 [2] = biological target: T1, OCT2; experiment: Inhibition of OCT2-mediated [3H]MPP+ uptake in HEK-OCT2 cells
[3] = ref 16 (Regenthal et al.), cited from earlier work; for Cmax,u: Cmax of unbound drug in humans; for Cmax: maximum steady-state plasma concentration in humans
[4] = test drug 20 µM, MPP+ 50 μM, 3 min, net uptake HEK-OCT2 minus HEK-VC
[5] = test drug 200 µM, MPP+ 50 μM, 3 min, net uptake HEK-OCT2 minus HEK-VC

T1 sequence (O15244 whole entry): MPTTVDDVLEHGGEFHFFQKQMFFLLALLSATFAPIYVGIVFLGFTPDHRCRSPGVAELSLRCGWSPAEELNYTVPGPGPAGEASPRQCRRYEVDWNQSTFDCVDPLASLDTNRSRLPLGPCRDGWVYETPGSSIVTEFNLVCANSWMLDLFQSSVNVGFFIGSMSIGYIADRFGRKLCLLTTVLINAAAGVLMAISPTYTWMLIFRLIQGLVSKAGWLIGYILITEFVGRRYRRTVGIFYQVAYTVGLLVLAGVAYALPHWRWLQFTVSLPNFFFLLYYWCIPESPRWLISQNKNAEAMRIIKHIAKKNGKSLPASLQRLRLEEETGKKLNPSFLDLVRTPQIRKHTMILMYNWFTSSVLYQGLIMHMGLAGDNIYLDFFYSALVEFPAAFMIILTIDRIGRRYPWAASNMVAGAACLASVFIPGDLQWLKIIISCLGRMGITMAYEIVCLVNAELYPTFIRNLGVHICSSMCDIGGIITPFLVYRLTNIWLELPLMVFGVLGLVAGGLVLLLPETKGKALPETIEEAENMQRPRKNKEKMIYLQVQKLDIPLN

SMILES | % Inhibition of OCT2-dependent MF uptake at 20 µM (mean ± SEM) (OCT2 [1]; human, pH 7.3) | % Inhibition of OCT2-dependent MF uptake at 200 µM (mean ± SEM) (OCT2 [1]; human, pH 7.3) | % Inhibition of OCT2-dependent MPP+ uptake at 20 µM (mean ± SEM) (OCT2 [2]; [4]) [%] | % Inhibition of OCT2-dependent MPP+ uptake at 200 µM (mean ± SEM) (OCT2 [2]; [5]) [%] | further results
NC(=O)CN1CCCC1=O [Piracetam] | 3.4 ± 3.4 | 2.5 ± 1.7 | -9.5 ± 12.1 | -0.5 ± 10.0 | –
CC[C@H](C)C(=O)O[C@H]1C[C@H](O)C=C2C=C[C@H](C)[C@H](CC[C@@H](O)C[C@@H](O)CC(=O)O)[C@H]21 [Pravastatin] | -26.3 ± 11.1 | -11.1 ± 11.1 | -30.2 ± 5.5 | -15.0 ± 5.2 | –
C[C@]12C=CC(=O)C=C1CC[C@@H]1[C@@H]2[C@@H](O)C[C@@]2(C)[C@H]1CC[C@]2(O)C(=O)CO [Prednisolone] | 66.0 ± 2.5 | 91.5 ± 0.5 | 42.1 ± 4.4 | 68.6 ± 2.8 | –
CC(C)C[C@H](CN)CC(=O)O [Pregabalin] | -1.3 ± 9.0 | 27.2 ± 5.9 | – | – | % Inhibition of OCT2-dependent MPP+ uptake at 20 µM (mean ± SEM) (OCT2 [2]; human, pH 7.3): -29.6 ± 7.5; % Inhibition of OCT2-dependent MPP+ uptake at 200 µM (mean ± SEM) (OCT2 [2]; human, pH 7.3): -15.8 ± 5.2
CC(CN1c2ccccc2Sc2ccccc21)N(C)C (stereo not drawn) [Promethazine] | 83.7 ± 3.3 | 100.7 ± 1.3 | 5.7 ± 3.8 | 76.0 ± 3.0 | –
CCOC(=O)[C@H](CCc1ccccc1)N[C@@H](C)C(=O)N1[C@H](C(=O)O)C[C@@H]2CCC[C@@H]21 [Ramipril] | 12.9 ± 4.1 | 35.4 ± 2.9 | 72.5 ± 7.4 | 83.6 ± 6.2 | –
CNC(=C[N+](=O)[O-])NCCSCc1ccc(CN(C)C)o1 [Ranitidine] | 65.2 ± 7.7 | 91.5 ± 3.8 | -7.9 ± 12.9 | 11.6 ± 3.4 | –
Cc1nc2n(c(=O)c1CCN1CCC(c3noc4cc(F)ccc34)CC1)CCCC2 [Risperidone] | 81.0 ± 4.4 | 98.3 ± 3.1 | 57.8 ± 5.2 | 78.4 ± 1.5 | –
CCN(C)C(=O)Oc1cccc([C@H](C)N(C)C)c1 [Rivastigmine] | 51.8 ± 4.0 | 91.4 ± 1.5 | 25.1 ± 9.1 | 59.4 ± 4.6 | –
CN[C@H]1CC[C@@H](c2ccc(Cl)c(Cl)c2)c2ccccc21 [Sertraline] | 88.4 ± 2.1 | 100.5 ± 0.7 | 43.6 ± 2.9 | 96.1 ± 1.7 | IC50 values, OCT2-mediated metformin transport (in words) (OCT2 [1]; potent inhibitors, confirmed previous findings [19]-[21]): low micromolar range
CCC(C)(C)C(=O)O[C@H]1C[C@@H](C)C=C2C=C[C@H](C)[C@H](CC[C@@H]3C[C@@H](O)CC(=O)O3)[C@H]21 [Simvastatin lactone] | -15.4 ± 5.5 | 57.6 ± 10.0 | 48.5 ± 9.0 | 53.8 ± 13.1 | –
CC(=O)S[C@@H]1CC2=CC(=O)CC[C@]2(C)[C@H]2CC[C@@]3(C)[C@@H](CC[C@@]34CCC(=O)O4)[C@H]12 [Spironolactone] | – | 98.4 ± 1.0 | 33.5 ± 4.7 | 95.0 ± 0.5 | Cmax,u / IC50 (OCT2 [1]): 0.02; IC50 (OCT2 [1]; human, pH 7.3): 1290 nM; Cmax,u [3]: 20 nM; Cmax [3]: 1200 nM
CCOc1ccccc1OCCN[C@H](C)Cc1ccc(OC)c(S(N)(=O)=O)c1 [Tamsulosin] | – | 107.0 ± 3.1 | 14.9 ± 4.8 | 65.7 ± 2.9 | –
Cn1c(=O)c2[nH]cnc2n(C)c1=O [Theophylline] | -21.5 ± 13.0 | -36.6 ± 10.9 | -12.9 ± 5.7 | -16.7 ± 6.8 | –
Cc1cccc(Nc2ccncc2S(=O)(=O)NC(=O)NC(C)C)c1 [Torasemide] | -33.2 ± 5.0 | -19.5 ± 0.8 | -11.4 ± 2.3 | -40.3 ± 5.0 | –
COc1cccc(C2(O)CCCCC2CN(C)C)c1 (stereo not drawn) [Tramadol] | 47.1 ± 9.5 | 103.7 ± 9.2 | – | – | % Inhibition of OCT2-dependent MPP+ uptake at 20 µM (mean ± SEM) (OCT2 [2]; human, pH 7.3): 5.9 ± 7.9; % Inhibition of OCT2-dependent MPP+ uptake at 200 µM (mean ± SEM) (OCT2 [2]; human, pH 7.3): 31.4 ± 1.4
Nc1nc(N)c2nc(-c3ccccc3)c(N)nc2n1 [Triamterene] | 48.0 ± 5.1 | 92.0 ± 2.1 | 6.6 ± 11.2 | 17.5 ± 3.8 | –
CCCC(CCC)C(=O)O [Valproic acid] | 18.5 ± 7.6 | 27.7 ± 1.9 | -17.3 ± 9.5 | -29.0 ± 9.2 | –
CCCCC(=O)N(Cc1ccc(-c2ccccc2-c2nnn[nH]2)cc1)[C@H](C(=O)O)C(C)C [Valsartan] | – | – | – | – | inhibition at 3 min, 20 µM (OCT2 [1]; human, pH 7.3): -41.7 ± 1.8%; inhibition at 3 min, 200 µM (OCT2 [1]; human, pH 7.3): -12.9 ± 3.6%; inhibition at 3 min, 20 µM (OCT2 [2]; human, pH 7.3): -77.2 ± 6%; inhibition at 3 min, 200 µM (OCT2 [2]; human, pH 7.3): -82.1 ± 9.9%
COc1ccc(C(CN(C)C)C2(O)CCCCC2)cc1 (stereo not drawn) [Venlafaxine] | 17.6 ± 3.2 | 72.2 ± 2.5 | -43.3 ± 13.0 | -54.3 ± 13.1 | –
Cc1cccc(C)c1NC(=O)c1cc(S(N)(=O)=O)c(Cl)cc1O [Xipamide] | -22.3 ± 9.7 | 9.4 ± 9.2 | 10.5 ± 3.7 | 6.6 ± 9.3 | –
Cc1ccc(-c2nc3ccc(C)cn3c2CC(=O)N(C)C)cc1 [Zolpidem] | – | 99.1 ± 0.5 | – | – | IC50 (OCT2 [1]; human, pH 7.3): 150 nM; Cmax,u [3]: 50 nM; Cmax [3]: 650 nM; % Inhibition of OCT2-dependent MPP+ uptake at 20 µM (mean ± SEM) (OCT2 [2]; human, pH 7.3): 36.5 ± 4.3; % Inhibition of OCT2-dependent MPP+ uptake at 200 µM (mean ± SEM) (OCT2 [2]; human, pH 7.3): 90.7 ± 8.2
